Consider 19 molecules from patent US5736555A, “Heterocyclic compounds and their use as angiotensin antagonists” (Takeda Chemical Industries, Ltd., priority 1991, dated 1998).

For experiment [1], the target named is T1, angiotensin II (A-II) receptor (Bos taurus, UniProt P25104).
T1 construct: An A-II receptor membrane fraction was prepared from bovine adrenal cortex; from tissue; host or cells: bovine adrenal cortex membrane fraction
T1 sequence (P25104 1-359): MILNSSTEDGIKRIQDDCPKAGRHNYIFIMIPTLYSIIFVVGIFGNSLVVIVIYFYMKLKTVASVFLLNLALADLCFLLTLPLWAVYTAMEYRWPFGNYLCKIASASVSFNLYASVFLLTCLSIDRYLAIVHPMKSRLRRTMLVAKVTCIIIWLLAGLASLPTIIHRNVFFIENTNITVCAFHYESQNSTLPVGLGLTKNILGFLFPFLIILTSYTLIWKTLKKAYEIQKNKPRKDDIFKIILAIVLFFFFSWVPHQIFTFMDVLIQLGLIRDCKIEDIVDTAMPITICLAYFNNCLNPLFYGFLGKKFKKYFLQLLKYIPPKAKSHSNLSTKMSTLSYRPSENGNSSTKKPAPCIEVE
Briefly: Inhibitory Effect of Binding of Angiotensin-II to Angiotensin Receptor (radioreceptor assay, 125I-AII, adrenal cortex membrane fraction). The conditions noted are these: bovine adrenal cortex membrane, room temperature, one hour. Here is the method:
Inhibitory Effect of Binding of Angiotensin-II to Angiotensin Receptor
An A-II receptor membrane fraction was prepared from bovine adrenal cortex.

For experiment [2], the system named is A-II-induced pressor action. The experiment in a line: Inhibitory Effect of the Compound of the Present Invention on Pressor Action of AII (p.o.). Type of experiment: in vivo, rat (Jcl: SD). As to conditions: rat, AII 100 ng/kg i.v.; for inhibition in vivo at 1 mg/kg / inhibition in vivo at 3 mg/kg: po, read-out: Pressor Response to A II (p.o.), percent inhibition class; for inhibition in vivo at 3 mg/kg: 3 mg/kg p.o. The source says: Inhibitory Effect of the Compound of the Present Invention on Pressor Action of AII
Jcl: SD rat (9 week old, male) were employed. On the day prior to the experiment, these animals were applied with cannulation into the femoral artery and vein under anesthesia with pentobarbital Na. These animals were fasted but allowed to free access to drinking water until the experiment was started. Just on the day of conducting the experiment, the artery cannula was connected with a blood-pressure transducer, and the average blood pressure was recorded by means of polygraph. Before administration of the drug, the pressor action due to intravenous administration of AII (100 ng/kg) as the control was determined. The drugs were orally administered, then, at each point of the determination, A-II was administered intravenously, and the pressor action was similarly determined. By comparing the pressor action before and after administration of the drug, the percent inhibition by the drug on A-II-induced pressor action was evaluated.

The conditions of experiment [3]: reported in literature; cited from earlier work.

Turning to `CCCCc1nc2cccc(C(=O)O)c2n1Cc1ccc(-c2ccccc2-c2noc(=O)[nH]2)cc1` [Example 33, 2-Butyl-1-[[2'-(2,5-dihydro-5-oxo-1,2,4-oxadiazol-3-yl)-biphenyl-4-yl]methyl]benzimidazole-7-carboxylic acid], 1 µM produced 70% inhibition in experiment [1] (10^-6 M). In experiment [1] (10^-7 M), the inhibition (commonly the change of the read-out against control, counted positive when it falls) at 0.1 µM is 23%. The inhibition in vivo at 1 mg/kg in experiment [2] (1 mg/kg p.o.) lay in the range of 50 to 70%.
For the molecule `CCOc1nc2cccc(C(=O)OC(C)OC(=O)OC3CCCCC3)c2n1Cc1ccc(-c2ccccc2-c2nc(=O)o[nH]2)cc1` (centres unmarked) [Example 4, 1-(Cyclohexyloxycarbonyloxy)ethyl 2-ethoxy-1-[[2'-(2,5-dihydro-5-oxo-1,2,4-oxadiazol-3-yl)biphenyl-4-yl]methyl]benzimidazole-7-carboxylate], the inhibition at 1 µM in experiment [1] (10^-6 M) came out at 44%. 0.1 µM produced 17% inhibition in experiment [1] (10^-7 M). Besides, the inhibition in vivo at 1 mg/kg in experiment [2] (1 mg/kg p.o.) is greater than 70%.
On the same counts, the results for `CCCc1nc2cccc(C(=O)O)c2n1Cc1ccc(-c2ccccc2-c2nc(=O)o[nH]2)cc1` [Example 30, 1-[[2'-(2,5-Dihydro-5-oxo-1,2,4-oxadiazol-3-yl)biphenyl-4-yl]methyl]-2-propylbenzimidazole-7-carboxylic Acid] are 77%, 35% and greater than 70%.
In experiment [1] (10^-6 M), `CCCOc1nc2cccc(C(=O)O)c2n1Cc1ccc(-c2ccccc2-c2nc(=O)o[nH]2)cc1` [Example 36, 1-[[2'-(2,5-Dihydro-5-oxo-1,2,4-oxadiazol-3-yl)biphenyl-4-yl]methyl]-2-propoxybenzimidazole-7-carboxylic acid] registered an inhibition at 1 µM of 60%. This molecule gave an inhibition at 0.1 µM in experiment [1] (10^-7 M) of 18%. The inhibition in vivo at 1 mg/kg in experiment [2] (1 mg/kg p.o.) is greater than 70%.
As for “Acetoxymethyl 1-[[2'-(4-acetoxymethyl-4,5-dihdyro-5-oxo-4H-1,2,4-oxadiazol-3-yl)biphenyl-4-yl]methyl]-2-ethoxybenzimidazole-7-carboxylate [Example 13]”, the “Radioreceptor assay % inhibition” value in experiment [1] (10^-6 M) was determined as 69%; in experiment [1] (10^-7 M), 31%. Besides, in experiment [2] (1 mg/kg p.o.), the “Pressor Response to A II (p.o.), percent inhibition class” value was “+++ (+++ ≥ 70%)”.
The molecule `CCc1nc2c(C)cc(C(=O)O)nc2n1Cc1ccc(-c2ccccc2-c2nc(=O)o[nH]2)cc1` [Example 56, 2-Ethyl-3-[[2'-(2,5-dihydro-5-oxo-1,2,4-oxadiazol-3-yl)biphenyl-4-yl]methyl]-7-methylimidazo[4,5-b]pyridine-5-carboxylic acid] showed an inhibition at 1 µM in experiment [1] (10^-6 M) of 94%. This molecule also showed an inhibition at 0.1 µM in experiment [1] (10^-7 M) of 80%. Also, the inhibition in vivo at 1 mg/kg in experiment [2] (1 mg/kg p.o.) is greater than 70%.
Turning to `CCCOc1nc2c(C)sc(C(=O)O)c2n1Cc1ccc(-c2ccccc2-c2nc(=O)o[nH]2)cc1` [Example 11, 1-[2'-(2,5-Dihydro-5-oxo-1,2,4-oxadiazol-3-yl)biphenyl-4-yl]methyl-4-methyl-2-n-propoxythieno[3,4-d]imidazole-6-carboxylic Acid], at 1 µM the inhibition in experiment [1] (10^-6 M) was 41%. In addition, the inhibition in vivo at 1 mg/kg in experiment [2] (1 mg/kg p.o.) is greater than 70%.
As for `CCOc1nc2c(C)sc(C(=O)O)c2n1Cc1ccc(-c2ccccc2-c2nc(=O)o[nH]2)cc1` [Example 10, 2-Ethoxy-1-[[2'-(2,5-dihydro-5-oxo-1,2,4-oxadiazol-3-yl)biphenyl-4-yl]methyl]-4-methylthieno[3,4-d]imidazole-6-carboxylic Acid], in experiment [1] (10^-6 M), the inhibition at 1 µM came to 51%. The same molecule gave an inhibition at 0.1 µM in experiment [1] (10^-7 M) of 17%. Moreover, the inhibition in vivo at 1 mg/kg in experiment [2] (1 mg/kg p.o.) is greater than 70%.
In the case of `CNCC(=O)N[C@@H](CCCN=C(N)N)C(=O)N[C@H](C(=O)N[C@@H](Cc1ccc(O)cc1)C(=O)N[C@H](C(=O)N[C@@H](Cc1cnc[nH]1)C(=O)N1CCC[C@H]1C(=O)N[C@@H](C)C(=O)O)C(C)C)C(C)C` [saralasin], the “angiotensin II antagonist activity” value in experiment [3] is reported as “potent”.
For the molecule `CCOc1nc2cccc(C(=O)OC)c2n1Cc1ccc(-c2ccccc2-c2nc(=O)s[nH]2)cc1` [Example 60, Methyl 2-ethoxy-1-[[2'-(2,5-dihydro-5-oxo-1,2,4-thiadiazol-3-yl)biphenyl-4-yl]methyl]benzimidazole-7-carboxylate], in experiment [1] (10^-6 M), 1 µM produced 84% inhibition. For the same molecule, the inhibition at 0.1 µM in experiment [1] (10^-7 M) worked out at 43%. For the same molecule, the inhibition in vivo at 1 mg/kg in experiment [2] (1 mg/kg p.o.) was greater than 70%.
`O=C(O)c1cccc2nc(C3CC3)n(Cc3ccc(-c4ccccc4-c4noc(=O)[nH]4)cc3)c12` [Example 32, 2-Cyclopropyl-1-[[2'-(2,5-dihydro-5-oxo-1,2,4-oxadiazol-3-yl)biphenyl-4-yl]methyl]benzimidazole-7-carboxylic acid] displayed an inhibition at 1 µM in experiment [1] (10^-6 M) of 75%. This molecule also registered an inhibition at 0.1 µM in experiment [1] (10^-7 M) of 27%. Besides, the inhibition in vivo at 1 mg/kg in experiment [2] (1 mg/kg p.o.) was greater than 70%.
`CCc1nc2cccc(C(=O)O)c2n1Cc1ccc(-c2ccccc2-c2nc(=O)o[nH]2)cc1` [Example 31, 2-Ethyl-1-[[2'-(2,5-dihydro-5-oxo-1,2,4-oxadiazol-3-yl)-biphenyl-4-yl]methyl]benzimidazole-7-carboxylic Acid] yielded an inhibition at 1 µM in experiment [1] (10^-6 M) of 79%. Further, at 0.1 µM the inhibition in experiment [1] (10^-7 M) was 41%. For the same molecule, in experiment [2] (1 mg/kg p.o.), the inhibition in vivo at 1 mg/kg is greater than 70%.
The like results for `COC(=O)c1cccc2nc(C3CC3)n(Cc3ccc(-c4ccccc4-c4nc(=O)o[nH]4)cc3)c12` [Example 32c, Methyl 2-cyclopropyl-1-[[2'-(2,5-dihydro-5-oxo-1,2,4-oxadiazol-3-yl)biphenyl-4-yl]methyl]-benzimidazole-7-carboxylate] were, in that order, 79%, 40% and greater than 70%.
In turn, `CCOc1nc2cccc(C(=O)O)c2n1Cc1ccc(-c2ccccc2-c2nc(=O)o[nH]2)cc1` [Example 1, 2-Ethoxy-1-[[2'-(2,5-dihydro-5-oxo-1,2,4-oxadiazol-3-yl)biphenyl-4-yl]methyl]benzimidazole-7-carboxylic Acid] gave an inhibition at 1 µM in experiment [1] (10^-6 M) of 79%. In addition, the inhibition at 0.1 µM in experiment [1] (10^-7 M) was found to be 34%. For the same molecule, the inhibition in vivo at 1 mg/kg in experiment [2] (1 mg/kg p.o.) was greater than 70%. The inhibition in vivo at 3 mg/kg in experiment [2] is greater than 70%.
`CCSc1nc2c(C)sc(C(=O)O)c2n1Cc1ccc(-c2ccccc2-c2noc(=O)[nH]2)cc1` [Example 8, 2-Ethylthio-1-[[2'-(2,5-dihydro-5-oxo-1,2,4-oxadiazol-3-yl)biphenyl-4-yl]methyl]-4-methylthieno[3,4-d]imidazole-6-carboxylic Acid] registered an inhibition at 1 µM in experiment [1] (10^-6 M) of 40%. This molecule came in with an inhibition at 0.1 µM in experiment [1] (10^-7 M) of 8%. Besides, in experiment [2] (1 mg/kg p.o.), the inhibition in vivo at 1 mg/kg is greater than 70%.
The molecule `CCNc1nc2c(C)sc(C(=O)O)c2n1Cc1ccc(-c2ccccc2-c2nc(=O)o[nH]2)cc1` [Example 12, 2-Ethylamino-1-[[2'-(2,5-dihydro-5-oxo-1,2,4-oxadiazol-3-yl)biphenyl-4-yl]methyl]-4-methylthieno[3,4-d]imidazole-6-carboxylic Acid] registered an inhibition at 1 µM in experiment [1] (10^-6 M) of 78%. This molecule also had an inhibition at 0.1 µM in experiment [1] (10^-7 M) of 46%. Also, the inhibition in vivo at 1 mg/kg in experiment [2] (1 mg/kg p.o.) is less than 50%.
On the same counts, the results for `COc1nc2cccc(C(=O)O)c2n1Cc1ccc(-c2ccccc2-c2noc(=O)[nH]2)cc1` [Example 35, 1-[[2'-(2,5-Dihydro-5-oxo-1,2,4-oxadiazol-3-yl)biphenyl-4-yl]methyl]-2-methoxybenzimidazole-7-carboxylic acid] are 79%, 38% and greater than 70%.
For the molecule `COc1nc2c(C)sc(C(=O)O)c2n1Cc1ccc(-c2ccccc2-c2nc(=O)o[nH]2)cc1` [Example 9, 2-Methoxy-1-[[2'-(2,5-dihydro-5-oxo-1,2,4-oxadiazol-3-yl)biphenyl-4-yl]methyl]-4-methylthieno[3,4-d]imidazole-6-carboxylic Acid], in experiment [1] (10^-6 M), testing at 1 µM gave an inhibition of 55%. Further, the inhibition at 0.1 µM in experiment [1] (10^-7 M) was determined as 19%. Besides, the inhibition in vivo at 1 mg/kg in experiment [2] (1 mg/kg p.o.) was greater than 70%. Besides, the inhibition in vivo at 3 mg/kg in experiment [2] was greater than 70%.
`CCOc1nc2cccc(C(=O)OC)c2n1Cc1ccc(-c2ccccc2C2=NOS(=O)N2)cc1` (centres unmarked) [Example 3, Methyl 2-ethoxy-1-[[2'-(2-oxo-3H-1,2,3,5-oxathiadiazol-4-yl)biphenyl]methyl]benzimidazole-7-carboxylate] displayed an inhibition at 1 µM in experiment [1] (10^-6 M) of 75%. This molecule showed an inhibition at 0.1 µM in experiment [1] (10^-7 M) of 33%. For the same molecule, the inhibition in vivo at 3 mg/kg in experiment [2] was greater than 70%.
